Laboratory results: patent EP4782453A1 (Beyang Therapeutics Co., Ltd., priority 2023, dated 2025)

molecular target: T1, Menin-MLL (Homo sapiens, UniProt O00255); assay: Inhibitory activity against Menin-MLL binding (fluorescence polarization); settings: Menin-MLL IC50, fluorescence polarization; 150 nM His-Menin, 15 nM FITC-MLL; 25°C for 60 min
T1 construct: His-Menin (M1-L615 end); purchased BIORTUS BP9210
T1 sequence (O00255 1-615 isoform O00255-1): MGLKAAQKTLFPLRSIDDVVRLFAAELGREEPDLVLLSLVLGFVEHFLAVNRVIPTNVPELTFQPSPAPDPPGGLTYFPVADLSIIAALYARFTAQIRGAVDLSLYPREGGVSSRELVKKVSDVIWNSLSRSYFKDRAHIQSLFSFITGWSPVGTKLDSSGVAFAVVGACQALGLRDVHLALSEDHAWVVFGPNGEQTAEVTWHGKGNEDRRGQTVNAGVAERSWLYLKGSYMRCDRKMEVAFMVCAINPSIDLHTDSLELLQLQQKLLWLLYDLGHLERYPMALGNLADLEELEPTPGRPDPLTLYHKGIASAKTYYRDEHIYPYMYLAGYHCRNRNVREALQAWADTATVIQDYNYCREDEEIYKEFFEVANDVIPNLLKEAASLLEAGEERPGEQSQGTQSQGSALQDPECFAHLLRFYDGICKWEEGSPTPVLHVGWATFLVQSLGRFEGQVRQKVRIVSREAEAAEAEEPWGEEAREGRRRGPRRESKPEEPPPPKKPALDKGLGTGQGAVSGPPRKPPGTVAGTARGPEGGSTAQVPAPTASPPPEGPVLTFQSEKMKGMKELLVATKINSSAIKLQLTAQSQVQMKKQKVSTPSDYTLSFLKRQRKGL
Experimental: • His-Menin (M1-L615 end), purchased from BIORTUS, Catalog Number: BP9210; and • FITC-MLL4-43, purchased from GenScript, Catalog Number: C491HFF190-3/PE1324.
In a 10 µL reaction solution (20 mM HEPES, pH 7.5, 50 mM NaCl, 1 mM DTT, 0.01% BSA) containing any compound from the examples, 150 nM His-Menin was added to a 384-well plate (Corning, Model: 4514). Each concentration was set up in duplicate wells. After centrifugation at 1000 RPM for 1 min, the plate was incubated at 25°C for 15 min. Then, 15 nM […] (20 mM HEPES, pH 7.5, 50 mM NaCl, 1 mM DTT, 0.01% BSA) was added to a 384-well plate. After centrifugation at 1000 RPM for 1 min, the reaction proceeded at 25°C for 60 min. Changes in fluorescence polarization were measured using a plate reader (PerkinElmer, Envision 2104). Based on the measured signals, the binding inhibition rate of the compound at each concentration was calculated, and the IC50 (half-maximal inhibitory concentration) of the compound was determined using statistical analysis software GraphPad Prism (GraphPad Software, Inc.) by means of a nonlinear fitting formula: 4-Parameter Logistic Model or Sigmoidal Dose-Response Model: Y = Bottom + (Top−Bottom)/(1 + 10^((LogIC50−X) × Hill Slope)), [formula] in which X indicates the logarithm of compound concentration, Y indicates a fluorescence polarization mP value, and Top and Bottom indicate the maximum and minimum readouts of fluorescence polarization mP values. Table 1: Inhibitory Activity of Compounds Against Menin-MLL Binding

Row | SMILES | IC50 [nM]
1 | CCS(=O)(=O)N[C@H]1CC[C@H](CN2CC(Cc3cc(-c4ccc(F)cc4C(=O)N(CC(F)F)C(C)C)c4cnn(C)c4c3)C2)CC1 [Example 161, N-(2,2-difluoroethyl)-5-fluoro-2-{1-methyl-6-[(1-{[(1r,4r)-4-ethanesulfonamidocyclohexyl]methyl}azacyclobutan-3-yl)methyl]-1H-indazol-4-yl}-N-(isopropyl)benzamide] | 33.5
2 | CCN(C(=O)c1cc(F)ccc1-c1cc(C2CCN(C[C@H]3CC[C@H](NS(=O)(=O)CC)CC3)C2)cn2cncc12)C(C)C (mixture of isomers) [Example 22, N-ethyl-5-fluoro-N-isopropyl-2-[6-(1-{[(1r,4r)-4-ethanesulfonamidocyclohexyl]methyl}pyrrolidin-3-yl)imidazo[1,5-a]pyridin-8-yl]benzamide] | 25
3 | CCN(C(=O)c1cc(F)ccc1-c1cc(N2CCC(NC[C@H]3CC[C@H](N4CCOC4=O)CC3)CC2)cc2c1cnn2C)C(C)C [Example 36, N-ethyl-5-fluoro-2-{1-methyl-6-[4-({[(1r,4r)-4-(2-oxo-1,3-oxazolidin-3-yl)cyclohexyl]methyl}amino)piperidin-1-yl]-1H-indazol-4-yl}-N-(isopropyl)benzamide] | 156
4 | CCS(=O)(=O)N(C)[C@H]1CC[C@H](CN2CC(c3cc(-c4ccc(F)cc4C(=O)N4CCOC[C@H]4C)c4cnn(C)c4c3)C2)CC1 [Example 174, N-methyl-N-[(1r,4r)-4-{[3-(4-{4-fluoro-2-[(3R)-3-methylmorpholin-4-carbonyl]phenyl}-1-methyl-1H-indazol-6-yl)azacyclobutan-1-yl]methyl}cyclohexyl]ethan-1-sulfonamide] | 125
5 | CCN(C(=O)c1cc(F)ccc1-c1cc(C2CN(C(=O)[C@H]3NC[C@@H]4CCC[C@@H]43)C2)cn2c(C)nc(F)c12)C(C)C [Example 274] | 19.5
6 | CCN(C(=O)c1cc(F)ccc1-c1cc(N2CCN(C(=O)C3NC4CCC3CC4)CC2)cn2c(C)nc(Cl)c12)C(C)C [Example 93, 2-(1-chloro-3-methyl-6-{4-[(1R,3S,4S)-2-azabicyclo[2.2.2]octan-3-carbonyl]piperazin-1-yl}imidazo[1,5-a]pyridin-8-yl)-N-ethyl-5-fluoro-N-(isopropyl)benzamide] | 21
7 | CCN(C(=O)c1cc(F)ccc1-c1cc(N2CCN(C(=O)[C@@H]3CCCCN3)CC2)cn2c(C)ncc12)C(C)C [Example 81] | 188
8 | CCN(C(=O)c1cc(F)ccc1-c1cc(C2CN(C(=O)[C@@H]3CCCN3)C2)cn2c(C)nc(Cl)c12)C(C)C [Example 125] | 26.5

same assay, conditions: fluorescence polarization; 150 nM His-Menin, 15 nM FITC-MLL; 25°C for 60 min; read-out: Menin-MLL IC50

Row | SMILES | IC50 [nM]
9 | CCN(C(=O)c1cc(F)ccc1-c1nc(C2CN([C@H](CCCN3CCN(CCC#N)CC3)C(C)C)C2)cn2c(C)ncc12)C(C)C [Example 492] | 270
10 | CCN(C(=O)c1cc(F)ccc1-c1cc(C2CN(C(CCCN3CCN(CCO)CC3)C(C)C)C2)cc2c(C)ncn12)C(C)C (centres unmarked) [Example 466, N-ethyl-5-fluoro-2-[7-(1-{6-[4-(2-hydroxyethyl)piperazin-1-yl]-2-methylhexan-3-yl}azacyclobutan-3-yl)-1-methylimidazo[1,5-a]pyridin-5-yl]-N-(isopropyl)benzamide] | 2.9
11 | CC(C)N(CC(F)F)C(=O)c1cc(F)ccc1-c1cc([C@H]2CCN(CCN3CCC(NC(=O)OC(C)(C)C)CC3)C2)cc2c1cnn2C [Example 166-2, N-(1-{2-[(3R)-3-(4-{2-[(2,2-difluoroethyl)(isopropyl)aminoformyl]-4-fluorophenyl}-1-methyl-1H-indazol-6-yl)pyrrolidin-1-yl]ethyl}piperidin-4-yl)tert-butyl carbamate] | 248

Other lines, results leading:

Row | IC50 [nM] | SMILES
12 | 161 | Cc1ncc2c(-c3ccc(F)cc3C(=O)N(CC(F)F)C(C)C)cc(N3CCN(C(=O)[C@@H]4CCC(c5cccc(F)c5)N4)CC3)cn12 (stereo partly drawn) [Example 140, N-(2,2-difluoroethyl)-5-fluoro-2-(6-{4-[(2S)-5-(3-fluorophenyl)pyrrolidin-2-carbonyl]piperazin-1-yl}-3-methylimidazo[1,5-a]pyridin-8-yl)-N-(isopropyl)benzamide]
13 | 118 | CCN(C(=O)c1cc(F)ccc1-c1cc(C2CCN(C[C@H]3CC[C@H](N4CCOC4=O)CC3)C2)nc2c1cnn2C)C(C)C (some centres unmarked) [Example 28]
14 | 21 | CCN(C(=O)c1cc(F)ccc1-c1cc(C2CN(C(CN3CCOCC3)C(C)C)C2)cn2c(C)ncc12)C(C)C (centres unmarked) [Example 439, N-ethyl-5-fluoro-2-(3-methyl-6-{1-[3-methyl-1-(morpholin-4-yl)butan-2-yl]azacyclobutan-3-yl}imidazo[1,5-a]pyridin-8-yl)-N-(isopropyl)benzamide]
15 | 7 | Cc1nc(F)c2c(-c3ccc(F)cc3C(=O)N3CCOC[C@H]3C)cc(C3CN(C[C@H]4CC[C@H](c5cnn(C)c5)CC4)C3)cn12 [Example 276-2, (3R)-4-{5-fluoro-2-[1-fluoro-3-methyl-6-(1-{[(1r,4r)-4-(1-methyl-1H-pyrazol-4-yl)cyclohexyl]methyl}azacyclobutan-3-yl)imidazo[1,5-a]pyridin-8yl]benzoyl}-3-methylmorpholine]
16 | 26 | Cc1nc(F)c2c(-c3ccc(F)cc3C(=O)N3CCOC[C@H]3C)cc(C3CN(C(CC[C@H]4COCCN4C)C(C)C)C3)cn12 (stereo partly drawn) [Example 374, (3R)-4-{5-fluoro-2-[1-fluoro-3-methyl-6-(1-{4-methyl-1-[(3S)-4-methylmorpholin-3-yl]pentan-3-yl}azacyclobutan-3-yl)imidazo[1,5-a]pyridin-8-yl]benzoyl}-3-methylmorpholine]
17 | 2.2 | CCN(C(=O)c1cc(F)ccc1-c1cc(C2CN([C@H](CCCN3CCN[C@@H](CF)C3)C(C)C)C2)cn2c(C)ncc12)C(C)C [Example 500]
18 | 7 | CCN(C(=O)c1cc(F)ccc1-c1cc(C2CN(C(C)C3CCN(C(C)=O)CC3)C2)cn2c(C)ncc12)C(C)C (centres unmarked) [Example 281]
19 | 9 | CCN(C(=O)c1cc(F)ccc1-c1cc(C2CN([C@@H](C)C3CCN(C(C)=O)CC3)C2)cn2c(C)ncc12)C(C)C [Example 281-1]
20 | 49.5 | Cc1nc(F)c2c(-c3ccc(F)cc3C(=O)N3CCOC[C@H]3C)cc(C3CN(CC4CCCOC4)C3)cn12 (some centres unmarked) [Example 235]
21 | 62 | C=C1CN[C@H](C(=O)N2CC(c3cc(-c4ccc(F)cc4C(=O)N(CC)C(C)C)c4c(F)nc(C)n4c3)C2)C1 [Example 130]
22 | 95.5 | CCN(C(=O)c1cc(F)ccc1-c1cc(C2CCN(C[C@H]3CC[C@H](NC(C)=O)CC3)C2)cn2cncc12)C(C)C (some centres unmarked) [Example 45]
23 | 257 | COC1(C(=O)N2CCC(CN3CC(c4cc(-c5ccc(F)cc5C(=O)N5CCOC[C@H]5C)c5c(F)nc(C)n5c4)C3)CC2)CC1 [Example 262]
24 | 152 | CCN(C(=O)c1cc(F)ccc1-c1cc(N2CCN(C(=O)[C@@H]3CCCN3)CC2)c(Cl)n2c(C)ncc12)C(C)C [Example 115, 2-(5-chloro-3-methyl-6-{4-[(2S)-pyrrolidin-2-carbonyl]piperazin-1-yl}imidazo[1,5-a]pyridin-8-yl)-N-ethyl-5-fluoro-N-(isopropyl)benzamide]
25 | 188 | CCN1CCN(CCC[C@@H](C(C)C)N2CC(c3cc(-c4ccc(F)cc4C(=O)N(CC)C(C)C)c4cnn(C)c4c3)C2)CC1 [Example 394-1, N-ethyl-2-(6-{1-[(3S)-6-(4-ethylpiperazin-1-yl)-2-methylhexan-3-yl]azacyclobutan-3-yl}-1-methyl-1H-indazol-4-yl)-5-fluoro-N-(isopropyl)benzamide]
26 | 26 | Cc1nc(F)c2c(-c3ccc(F)cc3C(=O)N3CCOC[C@H]3C)cc(C3CN([C@H](CCCN4CCOCC4)C(C)C)C3)cn12 [Example 199-1, (3R)-4-[5-fluoro-2-(1-fluoro-3-methyl-6-{1-[(3R)-2-methyl-6-(morpholin-4-yl)hexan-3-yl]azacyclobutan-3-yl}imidazo[1,5-a]pyridin-8-yl)benzoyl]-3-methylmorpholine]
